Molecules are shown by their SMILES.

The values that follow come from article PMC10535268, “Design, Synthesis, and Evaluation of Novel Indole Hybrid Chalcones and Their Antiproliferative and Antioxidant Activity” (Molecules, 2023).

For one series, the system named is Hela. Briefly: MTT antiproliferative assay, HeLa. To be noted: 72 h incubation, mean ± SD of three independent experiments. The class given is cell-based, human. As for the experimental part:
Table 2 IC50 (μM) ± SD of tested compounds in different cell lines after 72 h incubation. | column: Cell Line, IC50 (µM) ± SD / Hela
(In general: Formazan colour is commonly taken as a measure of viable cells.)

In a further series the test system is HCT116. Briefly: MTT antiproliferative assay, HCT116. Type of series: cell-based, human. To be noted: HCT116, 72 h incubation, mean ± SD of three independent experiments.
In a further series the test system is MCF-7. The series can be described thus: MTT antiproliferative assay, MCF-7. The class given is cell-based, human. To be noted: MCF-7, 72 h incubation, mean ± SD of three independent experiments.
Another series has as its system breast cancer cells. To be noted: flow cytometry, Western blot, fluorescence microscopy; cited from earlier work. (Flow cytometry measures light scatter and fluorescence of single cells or particles in a stream.)
The test system of another series is Jurkat. The series can be described thus: MTT antiproliferative assay, Jurkat. The class given is cell-based, human. To be noted: 72 h incubation, mean ± SD of three independent experiments.
A short description of series [1]: ABTS radical scavenging activity. To be noted: sample 1 mM, 30 min, gallic acid equivalents, mean (±SD), triplicate. The text has this:
(§1) Table 3 Antioxidant activity.

The nature of series [2]: DPPH radical scavenging activity. To be noted: sample 1 mM, 30 min, gallic acid equivalents, mean (±SD), triplicate.
In a further series the test system is MDA-MB-231. Briefly: MTT antiproliferative assay, MDA-MB-231. Type of series: cell-based, human. To be noted: MDA-MB-231, 72 h incubation, mean ± SD of three independent experiments.
A short description of series [3]: Ferric reducing antioxidant power (FRAP). To be noted: sample 1 mM, 30 min, gallic acid equivalents, mean (±SD), triplicate.
Excerpt: as §1

The next series deals with MCF-10A. Briefly: MTT cytotoxicity assay, non-cancer MCF-10A. Type of series: cell-based, human. To be noted: 72 h incubation, mean ± SD of three independent experiments.
The subject of series [4] is normal human liver cell line (L02). Further details: method as in Lagu et al. 19. To be noted: ref Lagu et al. 19; cited from earlier work.
Details of series [5]: method as in Lagu et al. 19. To be noted: compared to standard drugs; ref Lagu et al. 19; cited from earlier work.
The test system of another series is Bj-5ta. The series can be described thus: MTT cytotoxicity assay, non-cancer Bj-5ta. To be noted: Homo sapiens, 72 h incubation, mean ± SD of three independent experiments. Type of series: cell-based, human.

As a reminder, the IC50 is the concentration needed to halve the response being measured. A lower IC50 goes with inhibition by little substance. As to `CCCOc1[nH]c2ccccc2c1/C=C/C(=O)c1ccccc1F` [11f, (2E)-1-(2″-Fluorophenyl)-3-(2′-propoxy-1′H-indol-3′-yl)prop-2-en-1-one], the IC50 in the series with Hela was 45.3 ± 0.7 µM; in the series on HCT116, 34.4 ± 1.1 µM; with MCF-7, 37.3 ± 1.5 µM; in the series on Jurkat, 37.7 ± 1.1 µM; in the series with MDA-MB-231 it was 34 ± 3 µM; in the series on MCF-10A, over 100 µM. In addition, the “mode of cell death” value with breast cancer cells is “induce cell cycle arrest in the G2/M phase and apoptosis”. Moreover, in series [1], the ABTS is given as 175.1 (±10.4) µmol GAE/mmol. Also, the DPPH in series [2] is 227.3 (±11.0) µmol GAE/mmol. The FRAP in [3] is on record as 183.5 (±0.9) µmol GAE/mmol. In addition, in the series on MCF-10A, the “IC50 (µM) ± SD, MCF-10A” value is “minimal effect”.
One may read the melting point as the temperature, or range, at which the solid turns liquid. Take `O=C(/C=C/c1c[nH]c2ccccc12)c1ccc(C(F)(F)F)cc1` [12a, (2E)-3-(1H-indol-3-yl)-1-(4-trifluoromethylphenyl) prop-2-en-1-one]: the melting point fell in the range of 195 to 197 °C. In addition, in series [4], the “cytotoxicity on normal human liver cell line (L02)” value was “without showing cytotoxicity”. For the same compound, the midpoint of inhibition with Hela (Homo sapiens, HeLa, 72 h), the IC50, lay at 68.1 ± 3.3 µM. This compound showed an IC50 with HCT116 (Homo sapiens, HCT-116, 72 h) of 59.1 ± 1.1 µM. In addition, the antimicrobial activity result in series [5] is on record as “greatest antimicrobial activity”. The compound further showed an IC50 in the series on MCF-7 (Homo sapiens, MCF7, 72 h) of 43.4 µM. In the series with MCF-7, this compound registered an IC50 of 43.3 ± 0.6 µM. The compound further registered an IC50 with Jurkat (Homo sapiens) of over 100 µM. For the same compound, the IC50 with Bj-5ta is over 100 µM. This compound registered a concentration for half-maximal inhibition (IC50) in the series with MDA-MB-231 (Homo sapiens) of over 100 µM. Besides, the half-inhibitory concentration (IC50) with MCF-10A (Homo sapiens, MCF-10A, 72 h) was over 100 µM.
Compound `Cn1cc(/C=C/C(=O)c2ccc(C(F)(F)F)cc2)c2ccccc21` [12b, (2E)-3-(1-methyl-1H-indol-3-yl)-1-(4-trifluoromethylphenyl) prop-2-en-1-one] registered a melting point of 182 to 184 °C. For the same compound, the IC50 in the series on Hela (Homo sapiens, HeLa, 72 h) was found to be 32.8 ± 0.4 µM. Further, the midpoint of inhibition in the series on HCT116 (Homo sapiens, HCT-116, 72 h), the IC50, lay at 12.3 ± 0.2 µM. The compound further yielded an IC50 in the series on MCF-7 (Homo sapiens, MCF7, 72 h) of 20.5 ± 5.1 µM. This compound also displayed a half-inhibitory concentration (IC50) in the series with Jurkat (Homo sapiens) of over 100 µM. The half-maximal inhibitory concentration (IC50) in the series with Bj-5ta is over 100 µM. Besides, the IC50 with MDA-MB-231 (Homo sapiens) was over 100 µM. For the same compound, the IC50 with MCF-10A (Homo sapiens, MCF-10A, 72 h) is over 100 µM.
Regarding `COn1cc(/C=C/C(=O)c2ccc(C(F)(F)F)cc2)c2ccccc21` [12c, (2E)-3-(1-methoxy-1H-indol-3-yl)-1-(4-trifluoromethylphenyl) prop-2-en-1-one], the melting point is 113 to 115 °C. Also, half-maximal inhibition in the series with Hela (Homo sapiens, HeLa, 72 h) (IC50) required 98 ± 2.8 µM. The half-inhibitory concentration (IC50) with HCT116 (Homo sapiens, HCT-116, 72 h) amounted to 55.3 ± 1.7 µM. In the series on MCF-7 (Homo sapiens, MCF7, 72 h), this compound returned an IC50 of 86 ± 3.5 µM. Besides, inhibition in the series on Jurkat (Homo sapiens) was half-maximal at 39.3 ± 1.2 µM (IC50). In addition, the 50% inhibitory concentration (IC50) in the series on Bj-5ta is over 100 µM. This compound yielded a concentration for half-maximal inhibition (IC50) in the series with MDA-MB-231 (Homo sapiens) of 81.3 ± 1.2 µM. The IC50 in the series on MCF-10A (Homo sapiens, MCF-10A, 72 h) amounted to 38.4 ± 3.1 µM.
`O=C(/C=C/c1c[nH]c2ccccc12)c1ccccc1O` [13a, (2E)-1-(2-hydroxyphenyl)-3-(1H-indol-3-yl)prop-2-en-1-one] yielded a melting point of 179.5 to 181 °C. In the series with Hela (Homo sapiens, HeLa, 72 h), this compound registered an IC50 of 39.6 ± 3.5 µM. Besides, half-maximal inhibition with HCT116 (Homo sapiens, HCT-116, 72 h) (IC50) required 40.5 ± 3.1 µM. For the same compound, the half-inhibitory concentration (IC50) in the series on MCF-7 (Homo sapiens, MCF7, 72 h) worked out at 44.7 ± 2.6 µM. The IC50 in the series on Jurkat (Homo sapiens) was determined as 25.9 ± 2.4 µM. For the same compound, in [1], the ABTS is given as 292.4 (±12.4) µmol GAE/mmol. The IC50 in the series on Bj-5ta stood at 81.5 ± 0.2 µM. Besides, the DPPH in series [2] is 14.2 (±0.4) µmol GAE/mmol. Besides, in the series on MDA-MB-231 (Homo sapiens), half-maximal inhibition (IC50) required 92.7 ± 1.8 µM. In addition, in [3], the FRAP is reported as 125.2 (±9.4) µmol GAE/mmol. The same compound displayed an IC50 in the series on MCF-10A (Homo sapiens, MCF-10A, 72 h) of 55.4 ± 3.6 µM.
On to `Cn1cc(/C=C/C(=O)c2ccccc2O)c2ccccc21` [13b, (2E)-1-(2-hydroxyphenyl)-3-(1-methyl-1H-indol-3-yl)prop-2-en-1-one], for which the melting point lay in the range of 205 to 207 °C. Moreover, in the series on Hela (Homo sapiens, HeLa, 72 h), the concentration for half-maximal inhibition (IC50) amounted to 42.8 ± 2.5 µM. The IC50 with HCT116 (Homo sapiens, HCT-116, 72 h) worked out at 34.7 ± 0.2 µM. The same compound gave a concentration for half-maximal inhibition (IC50) with MCF-7 (Homo sapiens, MCF7, 72 h) of 29.7 ± 2.3 µM. The compound further yielded an IC50 in the series with Jurkat (Homo sapiens) of over 100 µM. The ABTS in [1] is on record as 116.8 (±5.8) µmol GAE/mmol. The same compound registered a half-maximal inhibitory concentration (IC50) with Bj-5ta of over 100 µM. Moreover, in [2], the DPPH is 7.6 (±3.8) µmol GAE/mmol. The compound further showed an IC50 with MDA-MB-231 (Homo sapiens) of 82 ± 3.2 µM. In addition, the FRAP in [3] is listed as 41.2 (±0.7) µmol GAE/mmol. The compound further had an IC50 in the series with MCF-10A (Homo sapiens, MCF-10A, 72 h) of over 100 µM.
